Each molecule was assayed on Escherichia coli ATCC 25922 (assay: 50% growth inhibitory concentration (IC50) determination, Iso-Sensitest broth dilution). Details: Escherichia coli, ATCC25922, 16 h, strain Escherichia coli ATCC 25922; 10-point broth dilution, optical density at 600 nm over 16 h; read-out: Escherichia coli growth inhibition IC50.
Format: cell-based
Description: 50% Growth Inhibitory Concentration (IC50) Determination
The in vitro antimicrobial activity of the compounds was determined according to the following procedure:
The assay used a 10-point Iso-Sensitest broth dilution method to measure quantitatively the in vitro
ATCC 25922, Acinetobacter baumannii ATCC 17961, Klebsiella pneumoniae ATCC 43816 and Staphylococcus aureus ATCC 29213.
Stock compounds in DMSO were serially twofold diluted (e.g. range from 50 to 0.097 μM final concentration) in 384 wells microtiter plates and inoculated with 50 μL of the bacterial suspension in Iso-
ell of 50 μL/well. Microtiter plates were incubated at 35±2° C.
Bacterial cell growth was determined with the measurement of optical density at λ=600 nm each 20 minutes over a time course of 16 h.
Growth inhibition was calculated during the logarithmic growth of the bacterial cells with
Table 1 provides the 50% growth inhibitory concentrations (IC50) in micromoles per liter of the compounds of present invention obtained against the strain Escherichia coli ATCC 25922.
Cn1nnc(COc2cc(C#N)c3c(c2)CC(CNCCC2CN(c4cnc5c(n4)NC(=O)CO5)C(=O)O2)C3)n1 (stereo not shown) [Example 389, 6-[(2-methyltetrazol-5-yl)methoxy]-2-[[2-[2-oxo-3-(3-oxo-4H-pyrazino[2,3-b][1,4]oxazin-6-yl)-1,3-oxazolidin-5-yl]ethylamino]methyl]-2,3-dihydro-1H-indene-4-carbonitrile] was tested, and the IC50 was < 97.7 nM.
For Cc1ncc(F)c2c1CC(CNCCC1CC(=O)N(c3ccc4c(n3)NC(=O)CO4)C1)C2 (stereo not shown) [Example 417, 6-[4-[2-[(4-Fluoro-1-methyl-6,7-dihydro-5H-cyclopenta[c]pyridin-6-yl)methylamino]ethyl]-2-oxopyrrolidin-1-yl]-4H-pyrido[3,2-b][1,4]oxazin-3-one], the IC50 was < 97.7 nM.
With CC(N)COc1cc(F)c2c(c1)CC(CCN1CC3(C1)CN(c1cnc4c(n1)NC(=O)CO4)C(=O)O3)C2 (stereo not shown) [Example 327, 6-[2-[2-[6-(2-aminopropoxy)-4-fluoro-2,3-dihydro-1H-inden-2-yl]ethyl]-6-oxo-5-oxa-2,7-diazaspiro[3.4]octan-7-yl]-4H-pyrazino[2,3-b][1,4]oxazin-3-one] the IC50 was < 97.7 nM.
With N#Cc1cccc2c1CC(NCC(O)CC1CN(c3cnc4c(n3)NC(=O)CO4)C(=O)O1)C2 (single isomer, unassigned; isomer a) [Example 81, 2-[[2-hydroxy-3-[2-oxo-3-(3-oxo-4H-pyrazino[2,3-b][1,4]oxazin-6-yl)-1,3-oxazolidin-5-yl]propyl]amino]-2,3-dihydro-1H-indene-4-carbonitrile, Isomer A; formic acid] the IC50 was 164 nM.
Cc1ncc(F)c2c1CC(C(C)NCC[C@@H]1CN(c3cnc4c(n3)NC(=O)CO4)C(=O)O1)C2 (stereo partly shown) [Example 331] was tested, and the IC50 was < 97.7 nM.
Cc1nc(OCCN)cc2c1CC(CNCCC1CN(c3ccc4c(n3)NC(=O)CO4)C(=O)O1)C2 (stereo not shown) [Example 209, 6-[5-[2-[[3-(2-aminoethoxy)-1-methyl-6,7-dihydro-5H-cyclopenta[c]pyridin-6-yl]methylamino]ethyl]-2-oxo-1,3-oxazolidin-3-yl]-4H-pyrido[3,2-b][1,4]oxazin-3-one] was tested, and the IC50 was 845 nM.
CNC(=O)COc1cc(C#N)c2c(c1)CC(CNCCC1CN(c3ccc4c(n3)NC(=O)CO4)C(=O)O1)C2 (stereo not shown) [Example 107, 2-[[7-cyano-2-[[2-[2-oxo-3-(3-oxo-4H-pyrido[3,2-b][1,4]oxazin-6-yl)-1,3-oxazolidin-5-yl]ethylamino]methyl]-2,3-dihydro-1H-inden-5-yl]oxy]-N-methylacetamide] showed an IC50 of 235 nM.
Cc1nc(OCC2(N)CC2)c(C)c2c1CC(CNCCC1CN(c3ccc4c(n3)NC(=O)CO4)C(=O)O1)C2 (stereo not shown) [Example 172, 6-[5-[2-[[3-[(1-aminocyclopropyl)methoxy]-1,4-dimethyl-6,7-dihydro-5H-cyclopenta[c]pyridin-6-yl]methylamino]ethyl]-2-oxo-1,3-oxazolidin-3-yl]-4H-pyrido[3,2-b][1,4]oxazin-3-one] was tested, and the IC50 was < 97.7 nM.
Cc1nc2c(c3c1CC(CNCCC1CN(c4ccc5c(n4)NC(=O)CO5)C(=O)O1)C3)CCN2 (stereo not shown) [Example 423, 6-[5-[2-[(8-Methyl-5,7-diazatricyclo[7.3.0.0^2.6]dodeca-1,6,8-trien-11-yl)methylamino]ethyl]-2-oxo-1,3-oxazolidin-3-yl]-4H-pyrido[3,2-b][1,4]oxazin-3-one] was tested, and the IC50 was 468 nM.
For Cc1nc(OCc2cc[nH]n2)c(F)c2c1CC(CNCCC1CN(c3cnc4c(n3)NC(=O)CO4)C(=O)O1)C2 (stereo not shown) [Example 415], the IC50 was 221 nM.
For O=C1COc2ncc(N3CC(CCNCC4Cc5cc(OCC(=O)NC6CC6)cc(F)c5C4)OC3=O)nc2N1 (stereo not shown) [Example 346, N-cyclopropyl-2-[[7-fluoro-2-[[2-[2-oxo-3-(3-oxo-4H-pyrazino[2,3-b][1,4]oxazin-6-yl)-1,3-oxazolidm-5-yl]ethylamino]methyl]-2,3-dihydro-1H-inden-5-yl]oxy]acetamide; formic acid], the IC50 was 311 nM.
For O=C1COc2ncc(N3CC(CCNCC4Cc5c(F)cnc(-c6cnc[nH]6)c5C4)OC3=O)nc2N1 (stereo not shown) [Example 433, 6-[5-[2-[[4-Fluoro-1-(1H-imidazol-5-yl)-6,7-dihydro-5H-cyclopenta[c]pyridin-6-yl]methylamino]ethyl]-2-oxo-1,3-oxazolidin-3-yl]-4H-pyrazino[2,3-b][1,4]oxazin-3-one], the IC50 was < 97.7 nM.
N#Cc1cccc2c1C(O)C(CNCCC1CN(c3ccc4c(n3)NC(=O)CS4)C(=O)O1)C2 (racemic) [Example 152, rac-2,3-trans-3-hydroxy-2-[[2-[2-oxo-3-(3-oxo-4H-pyrido[3,2-b][1,4]thiazin-6-yl)-1,3-oxazolidin-5-yl]ethylamino]methyl]-2,3-dihydro-1H-indene-4-carbonitrile; formic acid] showed an IC50 of 149 nM.
In the case of Cc1nc(OCCN)c(C)c2c1CC(CNCCC1CN(c3ccc4c(n3)NC(=O)CO4)C(=O)O1)C2 (stereo not shown) [Example 171, 6-[5-[2-[[3-(2-aminoethoxy)-1,4-dimethyl-6,7-dihydro-5H-cyclopenta[c]pyridin-6-yl]methylamino]ethyl]-2-oxo-1,3-oxazolidin-3-yl]-4H-pyrido[3,2-b][1,4]oxazin-3-one], the IC50 is reported as 178 nM.
In the case of Cc1nc(OCC2(N)CC2)c(C#N)c2c1CC(CN1CCC3(CC1)CN(c1ccc4c(n1)NC(=O)CO4)C(=O)O3)C2 (stereo not shown) [Example 215, 3-[(1-aminocyclopropyl)methoxy]-1-methyl-6-[[2-oxo-3-(3-oxo-4H-pyrido[3,2-b][1,4]oxazin-6-yl)-1-oxa-3,8-diazaspiro[4.5]decan-8-yl]methyl]-6,7-dihydro-5H-cyclopenta[c]pyridine-4-carbonitrile], the IC50 is reported as < 97.7 nM.
For CN(C)CCOc1cc(F)c2c(c1)CC(CNCCC1CN(c3ccc4c(n3)NC(=O)CO4)C(=O)O1)C2 (stereo not shown) [Example 271, 6-[5-[2-[[6-[2-(Dimethylamino)ethoxy]-4-fluoro-2,3-dihydro-1H-inden-2-yl]methylamino]ethyl]-2-oxo-1,3-oxazolidin-3-yl]-4H-pyrido[3,2-b][1,4]oxazin-3-one; formic acid], the IC50 was < 97.7 nM.
For Cc1ncc(F)c2c1CC(N(C)CCCc1cn(-c3cnc4c(n3)NC(=O)CO4)c(=O)o1)C2 (stereo not shown) [Example 303, 6-[5-[3-[(4-Fluoro-1-methyl-6,7-dihydro-5H-cyclopenta[c]pyridin-6-yl)-methylamino]propyl]-2-oxo-1,3-oxazol-3-yl]-4H-pyrazino[2,3-b][1,4]oxazin-3-one; formic acid], the IC50 was 163 nM.
With N#Cc1cccc2c1CC(CN1CC(C3CN(c4cnc5c(n4)NC(=O)CO5)C(=O)O3)C1)C2 (stereo not shown) [Example 76, 2-[[3-[2-oxo-3-(3-oxo-4H-pyrazino[2,3-b][1,4]oxazin-6-yl)-1,3-oxazolidin-5-yl]azetidin-1-yl]methyl]-2,3-dihydro-1H-indene-4-carbonitrile; formic acid] the IC50 was < 97.7 nM.
For N#Cc1cccc2c1CC(NCCCC1CN(c3ccc4c(n3)NC(=O)CO4)C(=O)O1)C2 (stereo not shown) [Example 13, 2-[3-[2-oxo-3-(3-oxo-4H-pyrido[3,2-b] [1,4]oxazin-6-yl)-1,3-oxazolidin-5-yl]propylamino]-2,3-dihydro-1H-indene-4-carbonitrile; formic acid], the IC50 was < 97.7 nM.
In the case of N#Cc1cccc2c1CC(CCN1CC3(C1)CN(c1ccc4c(n1)NC(=O)CO4)C(=O)O3)C2 (stereo not shown) [Example 33, 2-[2-[6-oxo-7-(3-oxo-4H-pyrido[3,2-b][1,4]oxazin-6-yl)-5-oxa-2,7-diazaspiro[3.4]octan-2-yl]ethyl]-2,3-dihydro-1H-indene-4-carbonitrile], the IC50 is reported as < 97.7 nM.
Molecule NC1(COc2cc(F)c3c(c2)CC(CNCCC2CN(c4ccc5c(n4)NC(=O)CO5)C(=O)O2)C3)COC1 (stereo not shown) [Example 162, 6-[5-[2-[[6-[(3-aminooxetan-3-yl)methoxy]-4-fluoro-2,3-dihydro-1H-inden-2-yl]methylamino]ethyl]-2-oxo-1,3-oxazolidin-3-yl]-4H-pyrido[3,2-b][1,4]oxazin-3-one; formic acid] has an IC50 of 195 nM.
In the case of Cc1c(OCC(=O)NC(C)C)ncc2c1CC(CNCCC1CN(c3ccc4c(n3)NC(=O)CO4)C(=O)O1)C2 (stereo not shown) [Example 224, N-isopropyl-2-((4-methyl-6-(((2-(2-oxo-3-(3-oxo-3,4-dihydro-2H-pyrido[3,2-b][1,4]oxazin-6-yl)oxazolidin-5-yl)ethyl)amino)methyl)-6,7-dihydro-5H-cyclopenta[c]pyridin-3-yl)oxy)acetamide], the IC50 is reported as 791 nM.
Cn1ccc(COc2cc(C#N)c3c(c2)CC(CNCCC2CN(c4cnc5c(n4)NC(=O)CO5)C(=O)O2)C3)n1 (stereo not shown) [Example 388, 6-[(1-methylpyrazol-3-yl)methoxy]-2-[[2-[2-oxo-3-(3-oxo-4H-pyrazino[2,3-b][1,4]oxazin-6-yl)-1,3-oxazolidin-5-yl]ethylamino]methyl]-2,3-dihydro-1H-indene-4-carbonitrile] showed an IC50 of 192 nM.
Work on Cc1nccc2c1CC(CNCCC1CN(c3ccc4c(n3)NC(=O)CO4)C(=O)O1)C2O (racemic) [Example 43, 6-[2-oxo-5-[2-[[rac-(5,6-trans)-5-hydroxy-1-methyl-6,7-dihydro-5H-cyclopenta[c]pyridin-6-yl]methylamino]ethyl]-1,3-oxazolidin-3-yl]-4H-pyrido[3,2-b][1,4]oxazin-3-one; formic acid] yielded an IC50 of 4140 nM.

Same assay, conditions: strain Escherichia coli ATCC 25922; 10-point broth dilution, optical density at 600 nm over 16 h; read-out: Escherichia coli growth inhibition IC50
Cc1ncc(F)c2c1CC(NC(C)CCC1CN(c3cnc4c(n3)NC(=O)CO4)C(=O)O1)C2 (single isomer, unassigned; isomer b) [Example 334, 6-[5-[3-[(4-fluoro-1-methyl-6,7-dihydro-5H-cyclopenta[c]pyridin-6-yl)amino]butyl]-2-oxo-1,3-oxazolidin-3-yl-4H-pyrazino[2,3-b][1,4]oxazin-3-one, Isomer B] showed an IC50 of 321 nM.

Reference: patent US20230167127A1, “COMPOUNDS AND THEIR USE IN THE TREATMENT OF BACTERIAL INFECTION” (Hoffmann-La Roche Inc., priority 2020, published 2023)
